From ChEMBL document CHEMBL6177933, “Discovery of Sophoridine α-Aryl Propionamide Derivative ZM600 as a Novel Antihepatic Fibrosis Agent” (J Med Chem, 2024) come the findings set out here.

Data set [1] relates to RAW264.7. As to the kind of experiment: Inhibition of LPS-induced NFkappaB transcriptional activity in mouse RAW264.7 cells at 5 uM preincubated for 2 hrs followed by LPS stimulation and measured after 6 hrs by luciferase reporter gene assay relative to control. In kind it is cell-based. The settings on record: time 8.0 hrs. On the technique in general: A reporter such as luciferase makes a cellular process visible.

Data set [2] can be described thus: Cytotoxicity against human LX-2 cells assessed as reduction in cell viability measured after 48 hrs by CCK-8 assay. The format is toxicity, cell-based. In general terms: Tetrazolium assays rely on reduction of a dye to a coloured formazan, in cell work by metabolically active cells.
In data set [3] the test system is RAW264.7. Briefly: Inhibition of LPS-induced NFkappaB transcriptional activity in mouse RAW264.7 cells at 10 uM preincubated for 2 hrs followed by LPS stimulation and measured after 6 hrs by luciferase reporter gene assay relative to control. The format is cell-based. The settings on record: time 8.0 hrs.
Data set [4] has as its system RAW264.7. As to the kind of experiment: Inhibition of LPS-induced NFkappaB transcriptional activity in mouse RAW264.7 cells at 20 uM preincubated for 2 hrs followed by LPS stimulation and measured after 6 hrs by luciferase reporter gene assay relative to control. Conditions: time 8.0 hrs. The format is cell-based.
Data set [5] deals with RAW264.7. Briefly: Antiinflammatory activity in mouse RAW264.7 cells assessed as inhibition of TGFbeta1-induced alpha-SMA expression at 5 to 20 uM preincubated for 2 hrs […] and measured after 48 hrs by Western blot analysis. The format is functional, cell-based. The settings on record: dose 5-20 µM, time 50.0 hrs. (In general: In western blotting, separated proteins are transferred to a membrane and probed.)

In data set [6] the test system is RAW264.7. As to the kind of experiment: Antiinflammatory activity in mouse RAW264.7 cells assessed as inhibition of TGFbeta1-induced collagen 1 expression at 5 to 20 uM preincubated for 2 hrs […] and measured after 48 hrs by Western blot analysis. The format is functional, cell-based. Conditions: dose 5-20 µM, time 50.0 hrs.

Calls of active or inactive are those of the source. The rule behind the calls is not given here.

As a reminder, the IC50 is the point on the concentration scale where inhibition reaches its midpoint. On to `COC(=O)CCC[C@@H]1[C@H]2CCCN3CCC[C@H](CN1C(=O)Cc1ccc(-c4ccccc4)c(F)c1)[C@@H]23`, for which the results for the fold change (FC) in the data set with RAW264.7 [1], in the data set with RAW264.7 [3] and with RAW264.7 [4] were 0.97, 1.13 and 1.04, respectively. For the same molecule, the IC50 at 48 h in data set [2] came to 14.5 µM.

Consider `COC(=O)CCC[C@@H]1[C@H]2CCCN3CCC[C@H](CN1C(=O)COC(=O)Cc1ccccc1Nc1c(Cl)cccc1Cl)[C@@H]23`, for which the fold change (FC) turned out to be 0.93 with RAW264.7 [1], 0.93 in the data set on RAW264.7 [3] and 0.81 in the data set on RAW264.7 [4]. The IC50 at 48 h in data set [2] came to 14.7 µM.

With `COC(=O)CCC[C@@H]1[C@H]2CCCN3CCC[C@H](CN1C(=O)C(C)c1ccc(CC(C)C)cc1)[C@@H]23` (some centres not stated), the fold change (FC) in the data set with RAW264.7 [1] came out at 1.03; with RAW264.7 [3] it was 1.04; in the data set with RAW264.7 [4], 1. Further, in data set [2], the IC50 at 48 h is 53 µM.

With `COC(=O)CCC[C@@H]1[C@H]2CCCN3CCC[C@H](CN1C(=O)Cc1ccc(-n4c(C)ccc4C)cc1)[C@@H]23`, the fold change (FC) was 1.05 in the data set with RAW264.7 [1], 0.93 in the data set on RAW264.7 [3] and 1.08 with RAW264.7 [4]. The IC50 at 48 h in data set [2] was found to be 96 µM.

For `COC(=O)CCC[C@@H]1[C@H]2CCCN3CCC[C@H](CN1C(=O)Cc1ccc(-c4cccc(F)c4)cc1)[C@@H]23`, the fold change (FC) in the data set with RAW264.7 [1] was 1.21; with RAW264.7 [3] it was 1.16; in the data set with RAW264.7 [4], 1.04. Further, in data set [2], the IC50 at 48 h came out at 53.3 µM.

In the case of `COC(=O)CCC[C@@H]1[C@H]2CCCN3CCC[C@H](CN1C(=O)[C@H](C)c1ccc4cc(OC)ccc4c1)[C@@H]23`, the fold change (FC) in the data set on RAW264.7 [1] came to 1.02; in the data set with RAW264.7 [3] it was 0.99; with RAW264.7 [4], 0.94. Further, the IC50 at 48 h in data set [2] was 63.5 µM.

In the case of `COC(=O)CCC[C@@H]1[C@H]2CCCN3CCC[C@H](CN1C(=O)CC1=C(C)/C(=C/c4ccc([S+](C)[O-])cc4)c4ccc(F)cc41)[C@@H]23` (some centres not stated), the fold change (FC) stood at 0.99 in the data set with RAW264.7 [1], 1 in the data set on RAW264.7 [3] and 0.99 with RAW264.7 [4]. Further, the IC50 at 48 h in data set [2] came to 61.8 µM.

`COC(=O)CCC[C@@H]1[C@H]2CCCN3CCC[C@H](CN1C(=O)Cc1ccc(-c4ccccc4)cc1)[C@@H]23`: the fold change (FC) in the data set with RAW264.7 [1] amounted to 0.99; with RAW264.7 [3], 0.94; in the data set on RAW264.7 [4], 0.85. The IC50 at 48 h in data set [2] was 31.7 µM.

As for `COC(=O)CCC[C@@H]1[C@H]2CCCN3CCC[C@H](CN1C(=O)C(C)c1ccc(-c4ccccc4)cc1)[C@@H]23` (some centres not stated), the fold change (FC) with RAW264.7 [1] came out at 1.01; in the data set on RAW264.7 [3] it was 1.08; with RAW264.7 [4] it was 1.04. Moreover, in data set [2], the IC50 at 48 h turned out to be 21.9 µM.

Consider `O=C1CCC[C@@H]2[C@H]3CCCN4CCC[C@H](CN12)[C@@H]34` [SOPHORIDINE], for which the values for the fold change (FC) in the data set on RAW264.7 [1], in the data set on RAW264.7 [3] and with RAW264.7 [4] were 1.03, 0.94 and 1.05, respectively. The inhibition result with RAW264.7 [5] and in the data set with RAW264.7 [6] was “inactive” each time. Besides, in data set [2], the IC50 at 48 h is greater than 100 µM.
